Experimental data as given in PubChem BioAssay AID1437 (PCMD, 2008).
Calls of active or inactive are those of the source. No rule for the calls is given here.

These molecules were tested against DNA repair protein RAD51 homolog 1 (Homo sapiens) (UniProt Q06609) (assay: RAD51 recombination inhibitor potency, dose response, biochemical, homologous recombination, fluorescence, second set (AID 1437)). Conditions: RAD51 homologous recombination biochemical assay.
DNA repair protein RAD51 homolog 1 (Homo sapiens), sequence (Q06609 whole entry, looked up): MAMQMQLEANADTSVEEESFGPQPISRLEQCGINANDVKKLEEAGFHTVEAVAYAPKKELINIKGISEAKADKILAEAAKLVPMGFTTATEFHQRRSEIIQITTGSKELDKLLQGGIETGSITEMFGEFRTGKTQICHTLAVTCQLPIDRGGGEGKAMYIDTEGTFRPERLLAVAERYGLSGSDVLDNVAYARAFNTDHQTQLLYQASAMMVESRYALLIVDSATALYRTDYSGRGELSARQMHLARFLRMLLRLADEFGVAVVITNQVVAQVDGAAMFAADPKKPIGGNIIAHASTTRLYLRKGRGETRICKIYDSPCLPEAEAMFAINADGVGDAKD

For `COC(=O)c1ccc(=O)c2nc3/c(=C/O)c(O)cc(=O)c3[nH]c12`, which IC50 is on record?
Its IC50 is 24.8 µM.

For `Cc1cc(C)cc(N2C(=O)CC(Sc3nnnn3-c3ccccc3)C2=O)c1` (stereo not drawn), which IC50 is on record?
Its IC50 is > 53 µM (inactive).

For `Cc1ccc(C2/C(=C(\O)c3ccc4c(c3)OCCO4)C(=O)C(=O)N2CCCN(C)C)o1` (stereo not drawn), which IC50 is on record?
The IC50 was > 53 µM (inactive).
